Measurements reported in patent US9802960B2 (MILLENNIUM PHARMACEUTICALS, INC., priority 2014, dated 2017).

Biological target: Human VPS34 (Homo sapiens (Human), UniProt Q8NEB9)
Assay: Human VPS34 enzyme assay (Adapta TR-FRET)
Format: biochemical
Details: IC50 range class

Human VPS34, sequence (Q8NEB9 whole entry): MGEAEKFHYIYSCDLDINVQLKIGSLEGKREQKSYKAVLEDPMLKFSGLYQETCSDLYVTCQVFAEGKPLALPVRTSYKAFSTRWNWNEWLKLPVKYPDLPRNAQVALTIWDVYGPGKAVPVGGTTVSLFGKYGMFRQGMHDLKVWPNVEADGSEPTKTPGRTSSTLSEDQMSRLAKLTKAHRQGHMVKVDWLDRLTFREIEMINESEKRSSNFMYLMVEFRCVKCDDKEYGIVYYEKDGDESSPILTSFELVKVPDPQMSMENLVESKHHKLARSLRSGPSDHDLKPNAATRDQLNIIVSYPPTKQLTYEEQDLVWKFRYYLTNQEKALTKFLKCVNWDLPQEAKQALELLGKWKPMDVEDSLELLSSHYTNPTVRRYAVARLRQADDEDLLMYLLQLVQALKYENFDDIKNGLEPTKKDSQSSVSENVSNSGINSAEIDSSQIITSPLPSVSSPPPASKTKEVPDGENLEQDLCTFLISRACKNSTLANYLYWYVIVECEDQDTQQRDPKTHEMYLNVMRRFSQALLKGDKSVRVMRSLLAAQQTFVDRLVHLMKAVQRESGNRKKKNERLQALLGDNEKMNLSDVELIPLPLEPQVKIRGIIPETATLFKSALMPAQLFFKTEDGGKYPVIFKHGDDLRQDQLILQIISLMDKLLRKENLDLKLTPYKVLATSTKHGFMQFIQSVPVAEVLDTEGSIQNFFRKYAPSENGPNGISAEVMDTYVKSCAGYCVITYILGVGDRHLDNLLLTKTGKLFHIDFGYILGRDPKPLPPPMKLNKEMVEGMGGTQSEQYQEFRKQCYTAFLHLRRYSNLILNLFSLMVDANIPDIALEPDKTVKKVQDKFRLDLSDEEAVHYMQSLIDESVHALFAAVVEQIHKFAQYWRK

| SMILES | IC50 |
| --- | --- |
| Cc1cccc(Nc2cc(-c3cnc(C)c(NS(=O)(=O)c4ccc(F)cc4F)c3)ccn2)n1 [Compound I-276, 2,4-difluoro-N-{6-methyl-2′-[(6-methylpyridin-2-yl)amino]-3,4′-bipyridin-5-yl}benzenesulfonamide] | < 10 nM |
| Cc1nccc(Nc2cc(-c3cnc(C)c(NS(=O)(=O)c4ccc(F)cc4F)c3)ccn2)n1 [Compound I-291, 2,4-difluoro-N-{6-methyl-2′-[(2-methylpyrimidin-4-yl)amino]-3,4′-bipyridin-5-yl}benzenesulfonamide] | < 10 nM |

Same assay, conditions: compound concentration 1.11 μM

| SMILES | Percent Inhibition |
| --- | --- |
| Cc1nccc(Nc2cc(-c3cnc(N)c(C(=O)N(C)C45CC(C4)C5)c3)ccn2)n1 [Compound I-277, 6-amino-N-(bicyclo[1.1.1]pent-1-yl)-N-methyl-2′-[(2-methylpyrimidin-4-yl)amino]-3,4′-bipyridine-5-carboxamide] | 100% |
| Cc1c(-c2ccnc(N)c2)cnc(Cl)c1NS(=O)(=O)c1ccc(F)cc1F [Compound I-287, N-(2′-amino-6-chloro-4-methyl-3,4′-bipyridin-5-yl)-2,4-difluorobenzenesulfonamide] | 91% |

Same assay, conditions: compound concentration 1.11 μM; read-out: Percent Inhibition

| SMILES | inhibition at 1.11 µM |
| --- | --- |
| Cc1ncc(-c2ccnc(Nc3ncccn3)c2)cc1NS(=O)(=O)c1ccc(F)cc1F [Compound I-265, 2,4-difluoro-N-[6-methyl-2′-(pyrimidin-2-ylamino)-3,4′-bipyridin-5-yl]benzenesulfonamide] | > 99% |
| Cc1nccc(Nc2cc(-c3cnc(C)c(C(=O)N(C)C)c3)ccn2)n1 [Compound I-266, N,N,6-trimethyl-2′-[(2-methylpyrimidin-4-yl)amino]-3,4′-bipyridine-5-carboxamide] | 100% |
| Cc1ncc(-c2ccnc(NC(=O)C3CC3(F)F)c2)cc1NS(=O)(=O)c1ccc(F)cc1F (stereo not shown) [Compound I-267a, N-(5-{[(2,4-difluorophenyl)sulfonyl]amino}-6-methyl-3,4′-bipyridin-2′-yl)-2,2-difluorocyclopropanecarboxamide] | 97% |
| COc1ncc(-c2ccnc(NC(C)=O)c2)c(C)c1NS(=O)(=O)N(C)C [Compound I-268, N-{5-[(dimethylsulfamoyl)amino]-6-methoxy-4-methyl-3,4′-bipyridin-2′-yl}acetamide] | 100% |
| CC(=O)Nc1cc(-c2cnc(C)c(NS(=O)(=O)N3CCN(C)CC3)c2)ccn1 [Compound I-269, N-(6-methyl-5-{[(4-methylpiperazin-1-yl)sulfonyl]amino}-3,4′-bipyridin-2′-yl)acetamide] | > 99% |
| Cc1ncc(-c2ccnc(Nc3nc4ccccc4s3)c2)cc1NS(=O)(=O)c1ccc(F)cc1F [Compound I-271, N-[2′-(1,3-benzothiazol-2-ylamino)-6-methyl-3,4′-bipyridin-5-yl]-2,4-difluorobenzenesulfonamide] | 91% |
| Cc1cc(Nc2cc(-c3cnc(Cl)c(NS(=O)(=O)c4ccc(F)cc4F)c3C)ccn2)ccn1 [Compound I-272, N-{6-chloro-4-methyl-2′-[(2-methylpyridin-4-yl)amino]-3,4′-bipyridin-5-yl}-2,4-difluorobenzenesulfonamide] | > 99% |
| CCN(C)S(=O)(=O)Nc1cc(-c2ccnc(NC(C)=O)c2)cnc1C [Compound I-273, N-(5-{[ethyl(methyl)sulfamoyl]amino}-6-methyl-3,4′-bipyridin-2′-yl)acetamide] | > 99% |
| CC(=O)Nc1cc(-c2cnc(C)c(NS(=O)(=O)N3CCCC3)c2)ccn1 [Compound I-274, N-{6-methyl-5-[(pyrrolidin-1-ylsulfonyl)amino]-3,4′-bipyridin-2′-yl}acetamide] | > 99% |
| Cc1nccc(Nc2cc(-c3cnc(C)c(C(=O)N(C)C45CC(C4)C5)c3)ccn2)n1 [Compound I-275, N-(bicyclo[1.1.1]pent-1-yl)-N,6-dimethyl-2′-[(2-methylpyrimidin-4-yl)amino]-3,4′-bipyridine-5-carboxamide] | > 99% |
| Cc1cccc(Nc2cc(-c3cnc(C)c(NS(=O)(=O)c4ccc(F)cc4F)c3)ccn2)n1 [Compound I-276, 2,4-difluoro-N-{6-methyl-2′-[(6-methylpyridin-2-yl)amino]-3,4′-bipyridin-5-yl}benzenesulfonamide] | 96% |
| CCc1c(-c2ccnc(NC(=O)C3CC3)c2)cnc(Cl)c1NS(=O)(=O)c1ccc(F)cc1F [Compound I-278, N-(6-chloro-5-{[(2,4-difluorophenyl)sulfonyl]amino}-4-ethyl-3,4′-bipyridin-2′-yl)cyclopropanecarboxamide] | > 99% |
| Cc1nccc(Nc2cc(-c3cnc(O)c(S(=O)(=O)NC4CCC4)c3)ccn2)n1 [Compound I-279, N-cyclobutyl-6-hydroxy-2′-[(2-methylpyrimidin-4-yl)amino]-3,4′-bipyridine-5-sulfonamide] | 93% |
| Cc1nccc(Nc2cc(-c3cnc(C)c(C(N)=O)c3)ccn2)n1 [Compound I-280, 6-methyl-2′-[(2-methylpyrimidin-4-yl)amino]-3,4′-bipyridine-5-carboxamide] | 83% |
| Cc1ncc(-c2ccnc(N)c2)cc1NS(=O)(=O)N(C)C [Compound I-281, N′-(2′-amino-6-methyl-3,4′-bipyridin-5-yl)-N,N-dimethylsulfuric diamide] | 40% |
| Cc1c(-c2ccnc(Nc3ccncn3)c2)cnc(Cl)c1NS(=O)(=O)c1ccc(F)cc1F [Compound I-282, N-[6-chloro-4-methyl-2′-(pyrimidin-4-ylamino)-3,4′-bipyridin-5-yl]-2,4-difluorobenzenesulfonamide] | 94% |
| CC(=O)Nc1cc(-c2cnc(N(C)C)c(C(=O)NC34CC(C3)C4)c2)ccn1 [Compound I-283, 2′-Acetamido-N-(bicyclo[1.1.1]pent-1-yl)-6-(dimethylamino)-3,4′-bipyridine-5-carboxamide] | > 99% |

| SMILES | inhibition at 1.11 µM |
| --- | --- |
| CN(C)c1ncc(-c2ccnc(Nc3ccncn3)c2)cc1C(=O)N(C)C12CC(C1)C2 [Compound I-284, N-(bicyclo[1.1.1]pent-1-yl)-6-(dimethylamino)-N-methyl-2′-(pyrimidin-4-ylamino)-3,4′-bipyridine-5-carboxamide] | > 99% |
| Cc1nccc(Nc2cc(-c3cnc(C)c(C(=O)NCC4CC4)c3)ccn2)n1 [Compound I-285, N-(cyclopropylmethyl)-6-methyl-2′-((2-methylpyrimidin-4-yl)amino)-[3,4′-bipyridine]-5-carboxamide] | 85% |
| Cc1nccc(Nc2cc(-c3cnc(C)c(NS(=O)(=O)N(C)C)c3)ccn2)n1 [Compound I-286, N,N-dimethyl-N-{6-methyl-2′-[(2-methylpyrimidin-4-yl)amino]-3,4′-bipyridin-5-yl}sulfuric diamide] | > 99% |
| Cc1nccc(Nc2cc(-c3cnc(C)c(N4CCCN(C)S4(=O)=O)c3)ccn2)n1 [Compound I-288, 6-methyl-5-(6-methyl-1,1-dioxido-1,2,6-thiadiazinan-2-yl)-N-(2-methylpyrimidin-4-yl)-3,4′-bipyridin-2′-amine] | 91% |
| Cc1nc(Nc2cc(-c3cnc(C)c(NS(=O)(=O)c4ccc(F)cc4F)c3)ccn2)ccc1C#N [Compound I-289, N-{2′-[(5-cyano-6-methylpyridin-2-yl)amino]-6-methyl-3,4′-bipyridin-5-yl}-2,4-difluorobenzene sulfonamide] | > 99% |
| CC(=O)Nc1cc(-c2cnc(Cl)c(NS(=O)(=O)c3ccc(F)cc3Cl)c2C)ccn1 [Compound I-290, N-(6-chloro-5-{[(2-chloro-4-fluorophenyl)sulfonyl]amino}-4-methyl-3,4′-bipyridin-2′-yl)acetamide] | > 99% |
| Cc1nccc(Nc2cc(-c3cnc(C)c(NS(=O)(=O)c4ccc(F)cc4F)c3)ccn2)n1 [Compound I-291, 2,4-difluoro-N-{6-methyl-2′-[(2-methylpyrimidin-4-yl)amino]-3,4′-bipyridin-5-yl}benzenesulfonamide] | 95% |
| Cc1ncc(-c2ccnc(Nc3ccnc(C(F)(F)F)n3)c2)cc1C(=O)N1CCC1 [Compound I-292, azetidin-1-yl(6-methyl-2′-{[2-(trifluoromethyl)pyrimidin-4-yl]amino}-3,4′-bipyridin-5-yl)methanone] | 99% |
| Cc1ccnc(Nc2cc(-c3cnc(Cl)c(NS(=O)(=O)c4ccc(F)cc4F)c3C)ccn2)n1 [Compound I-293, N-{6-chloro-4-methyl-2′-[(4-methylpyrimidin-2-yl)amino]-3,4′-bipyridin-5-yl}-2,4-difluorobenzene sulfonamide] | > 99% |
| Cc1nccc(Nc2cc(-c3cnc(Cl)c(NS(=O)(=O)c4ccc(F)cc4F)c3C)c(F)cn2)n1 [Compound I-294, N-{6-chloro-5′-fluoro-4-methyl-2′-[(2-methylpyrimidin-4-yl)amino]-3,4′-bipyridin-5-yl}-2,4-difluorobenzenesulfonamide] | 94% |
| Cc1nccc(Nc2cc(-c3cnc(Cl)c(NC(=O)c4ccc(F)cc4F)c3C)ccn2)n1 [Compound I-295, N-{6-chloro-4-methyl-2′-[(2-methylpyrimidin-4-yl)amino]-3,4′-bipyridin-5-yl}-2,4-difluorobenzamide] | 80% |
| Cc1c(-c2ccnc(Nc3ccnc(C4CC4)n3)c2)cnc(Cl)c1NS(=O)(=O)c1ccc(F)cc1F [Compound I-296, N-{6-chloro-2′-[(2-cyclopropylpyrimidin-4-yl)amino]-4-methyl-3,4′-bipyridin-5-yl}-2,4-difluorobenzene sulfonamide] | 90% |
| Cc1ncc(-c2ccnc(Nc3ccccn3)c2)cc1NS(=O)(=O)c1ccc(F)cc1F [Compound I-297, 2,4-difluoro-N-[6-methyl-2′-(pyridin-2-ylamino)-3,4′-bipyridin-5-yl]benzenesulfonamide] | > 99% |
| Nc1ncc(-c2ccnc(Nc3ccncn3)c2)cc1C(=O)NC12CC(C1)C2 [Compound I-298, 6-amino-N-(bicyclo[1.1.1]pent-1-yl)-2′-(pyrimidin-4-ylamino)-3,4′-bipyridine-5-carboxamide] | 99% |
| Cc1nccc(Nc2cc(-c3cnc(Cl)c(NS(=O)(=O)c4ccc(F)cc4F)c3C)ccn2)n1 [Compound I-299, N-{6-chloro-4-methyl-2′-[(2-methylpyrimidin-4-yl)amino]-3,4′-bipyridin-5-yl}-2,4-difluorobenzenesulfonamide] | 98% |
| Cc1c(-c2ccnc(Nc3ncc(C#N)cn3)c2)cnc(Cl)c1NS(=O)(=O)c1ccc(F)cc1F [Compound I-300, N-{6-chloro-2′-[(5-cyanopyrimidin-2-yl)amino]-4-methyl-3,4′-bipyridin-5-yl}-2,4-difluorobenzene sulfonamide] | 96% |
